{"source": "paper PMC8398451", "about": "“Molecular Engineering of Curcumin, an Active Constituent of Curcuma longa L. (Turmeric) of the Family Zingiberaceae with Improved Antiproliferative Activity” (Plants, 2021)", "key": {"RPMI-8226": {"test_system": "RPMI-8226", "test": "NCI antiproliferative SRB assay, Leukemia panel", "assay_type": "cell-based, Human", "conditions": "one dose 10 µM"}, "A549/ATCC": {"test_system": "A549/ATCC", "test": "NCI antiproliferative SRB assay, Non-Small Cell Lung Cancer panel", "assay_type": "cell-based, Human", "conditions": "one dose 10 µM"}, "EKVX": {"test_system": "EKVX", "test": "NCI antiproliferative SRB assay, Non-Small Cell Lung Cancer panel", "assay_type": "cell-based, Human", "conditions": "one dose 10 µM"}, "NCI-H322M": {"test_system": "NCI-H322M", "test": "NCI antiproliferative SRB assay, Non-Small Cell Lung Cancer panel", "assay_type": "cell-based, Human", "conditions": "one dose 10 µM"}, "NCI-H460": {"test_system": "NCI-H460", "test": "NCI antiproliferative SRB assay, Non-Small Cell Lung Cancer panel", "assay_type": "cell-based, Human", "conditions": "one dose 10 µM"}, "NCI-H522": {"test_system": "NCI-H522", "test": "NCI antiproliferative SRB assay, Non-Small Cell Lung Cancer panel", "assay_type": "cell-based, Human", "conditions": "one dose 10 µM"}, "HCC-2998": {"test_system": "HCC-2998", "test": "NCI antiproliferative SRB assay, Colon Cancer panel", "assay_type": "cell-based, Human", "conditions": "one dose 10 µM"}, "KM12": {"test_system": "KM12", "test": "NCI antiproliferative SRB assay, Colon Cancer panel", "assay_type": "cell-based, Human", "conditions": "one dose 10 µM"}, "SF-295": {"test_system": "SF-295", "test": "NCI antiproliferative SRB assay, CNS Cancer panel", "assay_type": "cell-based, Human", "conditions": "one dose 10 µM"}, "SNB-19": {"test_system": "SNB-19", "test": "NCI antiproliferative SRB assay, CNS Cancer panel", "assay_type": "cell-based, Human", "conditions": "one dose 10 µM"}, "U251": {"test_system": "U251", "test": "NCI antiproliferative SRB assay, CNS Cancer panel", "assay_type": "cell-based", "conditions": "U251; one dose 10 µM"}, "LOX IMVI": {"test_system": "LOX IMVI", "test": "NCI antiproliferative SRB assay, Melanoma panel", "assay_type": "cell-based, Human", "conditions": "one dose 10 µM"}, "M14": {"test_system": "M14", "test": "NCI antiproliferative SRB assay, Melanoma panel", "assay_type": "cell-based, Human", "conditions": "one dose 10 µM"}, "MDA-MB-435": {"test_system": "MDA-MB-435", "test": "NCI antiproliferative SRB assay, Melanoma panel", "assay_type": "cell-based", "conditions": "one dose 10 µM"}, "SK-MEL-2": {"test_system": "SK-MEL-2", "test": "NCI antiproliferative SRB assay, Melanoma panel", "assay_type": "cell-based, Human", "conditions": "one dose 10 µM"}, "SK-MEL-28": {"test_system": "SK-MEL-28", "test": "NCI antiproliferative SRB assay, Melanoma panel", "assay_type": "cell-based, Human", "conditions": "one dose 10 µM"}, "UACC-257": {"test_system": "UACC-257", "test": "NCI antiproliferative SRB assay, Melanoma panel", "assay_type": "cell-based, Human", "conditions": "one dose 10 µM"}, "UACC-62": {"test_system": "UACC-62", "test": "NCI antiproliferative SRB assay, Melanoma panel", "assay_type": "cell-based, Human", "conditions": "one dose 10 µM"}, "OVCAR-8": {"test_system": "OVCAR-8", "test": "NCI antiproliferative SRB assay, Ovarian Cancer panel", "assay_type": "cell-based, Human", "conditions": "one dose 10 µM"}, "NCI/ADR-RES": {"test_system": "NCI/ADR-RES", "test": "NCI antiproliferative SRB assay, Ovarian Cancer panel", "assay_type": "cell-based, Human", "conditions": "one dose 10 µM"}, "786–0": {"test_system": "786–0", "test": "NCI antiproliferative SRB assay, Renal Cancer panel", "assay_type": "cell-based, Human", "conditions": "one dose 10 µM"}, "A498": {"test_system": "A498", "test": "NCI antiproliferative SRB assay, Renal Cancer panel", "assay_type": "cell-based, Human", "conditions": "one dose 10 µM"}, "CAKI-1": {"test_system": "CAKI-1", "test": "NCI antiproliferative SRB assay, Renal Cancer panel", "assay_type": "cell-based, Human", "conditions": "one dose 10 µM"}, "RXF 393": {"test_system": "RXF 393", "test": "NCI antiproliferative SRB assay, Renal Cancer panel", "assay_type": "cell-based, Human", "conditions": "one dose 10 µM"}, "DU-145": {"test_system": "DU-145", "test": "NCI antiproliferative SRB assay, Prostate Cancer panel", "assay_type": "cell-based, Human", "conditions": "one dose 10 µM"}, "MDA-MB-231": {"test_system": "MDA-MB-231", "test": "NCI antiproliferative SRB assay, Breast Cancer panel", "assay_type": "cell-based", "conditions": "one dose 10 µM"}, "HS 578T": {"test_system": "HS 578T", "test": "NCI antiproliferative SRB assay, Breast Cancer panel", "assay_type": "cell-based, Human", "conditions": "one dose 10 µM"}, "BT-549": {"test_system": "BT-549", "test": "NCI antiproliferative SRB assay, Breast Cancer panel", "assay_type": "cell-based, Human", "conditions": "one dose 10 µM"}, "Leukemia cell line panel": {"test_system": "Leukemia cell line panel", "test": "NCI antiproliferative assay, panel summary", "assay_type": "cell-based, Human", "conditions": "10 µM"}, "[1]": {"test_system": "Breast Cancer cell line panel", "test": "NCI antiproliferative assay, panel summary", "assay_type": "cell-based, Human", "conditions": "10 µM"}}}
{"compound": "COc1ccc(/C=C/c2cc(/C=C/c3ccc(OC)c(O)c3)n(-c3cccc(Cl)c3)c(=S)n2)cc1O", "note": "[3a]", "values": [{"measurement": "%GI", "setting": "RPMI-8226", "value": 39.41, "unit": "%"}, {"measurement": "GP (growth percent)", "setting": "RPMI-8226", "value": 60.59}, {"measurement": "%GI", "setting": "A549/ATCC", "value": 27.44, "unit": "%"}, {"measurement": "GP (growth percent)", "setting": "A549/ATCC", "value": 72.56}, {"measurement": "%GI", "setting": "EKVX", "value": 14.19, "unit": "%"}, {"measurement": "GP (growth percent)", "setting": "EKVX", "value": 85.81}, {"measurement": "%GI", "setting": "NCI-H322M", "value": 8.07, "unit": "%"}, {"measurement": "GP (growth percent)", "setting": "NCI-H322M", "value": 91.93}, {"measurement": "%GI", "setting": "NCI-H460", "value": 10.49, "unit": "%"}, {"measurement": "GP (growth percent)", "setting": "NCI-H460", "value": 89.51}, {"measurement": "%GI", "setting": "NCI-H522", "value": 62.11, "unit": "%"}, {"measurement": "GP (growth percent)", "setting": "NCI-H522", "value": 37.89}, {"measurement": "%GI", "setting": "HCC-2998", "value": "−3.70", "unit": "%"}, {"measurement": "GP (growth percent)", "setting": "HCC-2998", "value": 103.70}, {"measurement": "%GI", "setting": "KM12", "value": 19.67, "unit": "%"}, {"measurement": "GP (growth percent)", "setting": "KM12", "value": 80.33}, {"measurement": "%GI", "setting": "SF-295", "value": "−9.94", "unit": "%"}, {"measurement": "GP (growth percent)", "setting": "SF-295", "value": 109.94}, {"measurement": "%GI", "setting": "SNB-19", "value": 15.45, "unit": "%"}, {"measurement": "GP (growth percent)", "setting": "SNB-19", "value": 84.55}, {"measurement": "%GI", "setting": "U251", "value": 40.59, "unit": "%"}, {"measurement": "GP (growth percent)", "setting": "U251", "value": 59.41}, {"measurement": "%GI", "setting": "LOX IMVI", "value": 21.36, "unit": "%"}, {"measurement": "GP (growth percent)", "setting": "LOX IMVI", "value": 78.64}, {"measurement": "%GI", "setting": "M14", "value": 5.96, "unit": "%"}, {"measurement": "GP (growth percent)", "setting": "M14", "value": 94.04}, {"measurement": "%GI", "setting": "MDA-MB-435", "value": 18.68, "unit": "%"}, {"measurement": "GP (growth percent)", "setting": "MDA-MB-435", "value": 81.32}, {"measurement": "%GI", "setting": "SK-MEL-2", "value": 4.85, "unit": "%"}, {"measurement": "GP (growth percent)", "setting": "SK-MEL-2", "value": 95.15}, {"measurement": "%GI", "setting": "SK-MEL-28", "value": 7.56, "unit": "%"}, {"measurement": "GP (growth percent)", "setting": "SK-MEL-28", "value": 92.44}, {"measurement": "%GI", "setting": "UACC-257", "value": 47.09, "unit": "%"}, {"measurement": "GP (growth percent)", "setting": "UACC-257", "value": 52.91}, {"measurement": "%GI", "setting": "UACC-62", "value": 17.81, "unit": "%"}, {"measurement": "GP (growth percent)", "setting": "UACC-62", "value": 82.19}, {"measurement": "%GI", "setting": "OVCAR-8", "value": 28.57, "unit": "%"}, {"measurement": "GP (growth percent)", "setting": "OVCAR-8", "value": 71.43}, {"measurement": "%GI", "setting": "NCI/ADR-RES", "value": 3.63, "unit": "%"}, {"measurement": "GP (growth percent)", "setting": "NCI/ADR-RES", "value": 96.37}, {"measurement": "%GI", "setting": "786–0", "value": 5.38, "unit": "%"}, {"measurement": "GP (growth percent)", "setting": "786–0", "value": 94.62}, {"measurement": "%GI", "setting": "A498", "value": "−4.38", "unit": "%"}, {"measurement": "GP (growth percent)", "setting": "A498", "value": 104.38}, {"measurement": "%GI", "setting": "CAKI-1", "value": 20.96, "unit": "%"}, {"measurement": "GP (growth percent)", "setting": "CAKI-1", "value": 79.04}, {"measurement": "%GI", "setting": "RXF 393", "value": 7.37, "unit": "%"}, {"measurement": "GP (growth percent)", "setting": "RXF 393", "value": 92.63}, {"measurement": "%GI", "setting": "DU-145", "value": 19.16, "unit": "%"}, {"measurement": "GP (growth percent)", "setting": "DU-145", "value": 80.84}, {"measurement": "%GI", "setting": "MDA-MB-231", "value": 31.75, "unit": "%"}, {"measurement": "GP (growth percent)", "setting": "MDA-MB-231", "value": 68.25}, {"measurement": "%GI", "setting": "HS 578T", "value": 15.67, "unit": "%"}, {"measurement": "GP (growth percent)", "setting": "HS 578T", "value": 84.33}, {"measurement": "%GI", "setting": "BT-549", "value": 27.48, "unit": "%"}, {"measurement": "GP (growth percent)", "setting": "BT-549", "value": 72.52}, {"measurement": "Mean % GI", "setting": "Leukemia cell line panel", "value": 41.39, "unit": "%"}, {"measurement": "Mean % GI", "setting": "[1]", "value": 26.56, "unit": "%"}]}
